Patent US8642801B2 (BHI Limited Partnership, priority 2003, dated 2014)

Biological target: T1, Aβ40 and Aβ42 peptides in plasma and brain of TgCRND8 mice (Homo sapiens, UniProt P05067)
T1 construct: ELISA using Human Aβ40 and Aβ42 Fluorometric ELISA kits from Biosource; from tissue; host or cells: plasma and brain homogenate of TgCRND8 transgenic mice (hAPP transgene)
Test: Long term treatment in adult transgenic CRND8 mice overexpressing βAPP: Aβ levels in plasma and brain by ELISA
Format: in vivo, Mouse
Conditions: BX subcutaneous, BW and BZ oral, vs vehicle or methylcellulose control
Source text: Transgenic mice, TgCRND8, as those used in the short term treatment, overexpress a human APP gene with the Swedish and Indiana mutations leading to the production of high levels of the amyloid peptides and to the development of an early-onset, aggressive development of brain amyloidosis. The high levels of Aβ peptides and the relative overabundance of Aβ42 compared to Aβ40 are believed to be associated with the severe and early degenerative pathology observed. The pattern of amyloid deposition, presence of dystrophic neuritis, and cognitive deficit has been well documented in this transgenic mouse line. The levels of Aβ peptides in the brain of these mice increase dramatically as the animals age. While the total amyloid peptide levels increase from ˜1.6×10^5 pg/g of brain to ˜3.8×10^6 between 9 and 17 weeks of age.
The long-term therapeutic effects of compounds of the present invention on cerebral amyloid deposition and β-amyloid (Aβ) levels in the plasma and in the brains of transgenic mice, TgCRND8, expressing the human amyloid precursor protein (hAPP) was studied. These compounds were administered over an 8 or 16 week period at the end of which the levels of Aβ peptides in the plasma and brain of TgCRND8 animals were determined. The goal of this study was to evaluate the efficacy of the compounds at modulating the progression of the amyloidogenic process in the brain and in the plasma of a transgenic mouse model of Alzheimer's disease (AD)
The mice used in the study consisted of animals bearing one copy of the hAPP gene (+/−) from the 2nd and 3rd generation progenies (N2 and N3) derived from backcrosses from TgCRND8.FVB(N2)AJ(N3) with B6AF1/J hybrid animals. N1=TgCRND8.FVB(N2)AJ(N3)×B6AF1/J N2=TgCRND8.FVB(N2)AJ(N3).B6AF1/J(N1)×B6AF1/J N3=TgCRND8.FVB(N2)AJ(N3).B6AF1/J(N2)×B6AF1/a
The following abbreviations are used to designate these animals in the present study: TgCRND8.B6AF1/J(N2); TgCRND8.B6AF1/J(N3). Male and female transgenic mice were given daily subcutaneous (compound BX) or oral (compounds BW and BZ) administrations of the appropriate compounds for 8 or 16 weeks.
Baseline animals consisted of 9±1 week old naive TgCRND8.B6AF1/J animals from the 2nd and 3rd generations. These mice were used to determine the extent of cerebral amyloid deposits and Aβ levels in the plasma and brain of naive transgenic animals at the initiation of treatment.
Starting at 9 weeks of age (±1 week) animals received daily administration of their respective treatment for a period of 8 or 16 weeks, at a dose of 30 or 100 mg/kg at 10 ml/kg. The route of administration was subcutaneous for water-soluble compounds (Compound BX) and oral for compounds solubilized in methylcellulose 1% (MC 1%) (Compounds BW and BZ). At the end of the treatment periods, plasma and perfused brains were collected for quantification of Aβ levels.
Animal health was monitored, samples were collected and Aβ levels were measured as described above in the short term treatment study. Compounds were scored based on their ability to modulate levels of Aβ peptides in the plasma and the cerebral soluble/insoluble levels in the brain. Levels of Aβ observed in the plasma and brain of treated animals were compared to that of vehicle-treated (water) or methylcellulose-treated control groups and ranked according to the strength of the pharmacological effect. Increases in the levels of Aβ peptides are indicated using “+” symbols, while decreases in the levels of Aβ peptides are indicated using “−” symbols. The strongest effects are recorded as “+++” or “−−−” while the weakest are shown as “+” or “−”.
Specifically, increases in the levels of Aβ (relative to vehicle treated control) of 5 to 14% are scored as “+”; increases of 15 to 29% are scored as “++”; and increases of 30% or higher are scored as “+++”. Decreases in the levels of Aβ of 5 to 14% are scored as “−”; decreases of 15 to 29% are scored as “−−”; and decreases of 30% or more are scored as “−−−”. […]

O=S(=O)(O)CCCNC1C2CC3CC(C2)CC1C3 (stereo not drawn) [BZ, 3-(2-adamantyl)amino-1-propanesulfonic acid]
Brain Abeta40 insoluble (30 mg/kg daily, 8 wks): −− (decreases of 15 to 29% are scored as “−−”) | Brain Abeta40 soluble (30 mg/kg daily, 8 wks): 0 (changes of 4% or less in either direction are scored as “0”) | Brain Abeta42 insoluble (30 mg/kg daily, 8 wks): −−− (decreases of 30% or more are scored as “−−−”) | Brain Abeta42 soluble (30 mg/kg daily, 8 wks): 0 (changes of 4% or less in either direction are scored as “0”) | Plasma Abeta40 (30 mg/kg daily, 8 wks): 0 (changes of 4% or less in either direction are scored as “0”) | Plasma Abeta42 (30 mg/kg daily, 8 wks): 0 (changes of 4% or less in either direction are scored as “0”) | Brain Abeta40 insoluble (30 mg/kg daily, 16 wks): + (increases in the levels of Aβ (relative to vehicle treated control) of 5 to 14% are scored as “+”) | Brain Abeta40 soluble (30 mg/kg daily, 16 wks): 0 (changes of 4% or less in either direction are scored as “0”) | Brain Abeta42 insoluble (30 mg/kg daily, 16 wks): 0 (changes of 4% or less in either direction are scored as “0”) | Brain Abeta42 soluble (30 mg/kg daily, 16 wks): + (increases in the levels of Aβ (relative to vehicle treated control) of 5 to 14% are scored as “+”) | Plasma Abeta40 (30 mg/kg daily, 16 wks): 0 (changes of 4% or less in either direction are scored as “0”) | Plasma Abeta42 (30 mg/kg daily, 16 wks): + (increases in the levels of Aβ (relative to vehicle treated control) of 5 to 14% are scored as “+”) | Brain Abeta40 insoluble (100 mg/kg daily, 8 wks): 0 (changes of 4% or less in either direction are scored as “0”) | Brain Abeta40 soluble (100 mg/kg daily, 8 wks): ++ (increases of 15 to 29% are scored as “++”) | Brain Abeta42 insoluble (100 mg/kg daily, 8 wks): − (Decreases in the levels of Aβ of 5 to 14% are scored as “−”) | Brain Abeta42 soluble (100 mg/kg daily, 8 wks): 0 (changes of 4% or less in either direction are scored as “0”) | Plasma Abeta40 (100 mg/kg daily, 8 wks): ++ (increases of 15 to 29% are scored as “++”) | Plasma Abeta42 (100 mg/kg daily, 8 wks): +++ (increases of 30% or higher are scored as “+++”) | Brain Abeta40 insoluble (100 mg/kg daily, 16 wks): 0 (changes of 4% or less in either direction are scored as “0”) | Brain Abeta40 soluble (100 mg/kg daily, 16 wks): −− (decreases of 15 to 29% are scored as “−−”) | Brain Abeta42 insoluble (100 mg/kg daily, 16 wks): + (increases in the levels of Aβ (relative to vehicle treated control) of 5 to 14% are scored as “+”) | Brain Abeta42 soluble (100 mg/kg daily, 16 wks): − (Decreases in the levels of Aβ of 5 to 14% are scored as “−”) | Plasma Abeta40 (100 mg/kg daily, 16 wks): ++ (increases of 15 to 29% are scored as “++”) | Plasma Abeta42 (100 mg/kg daily, 16 wks): ++ (increases of 15 to 29% are scored as “++”)
